# System: Giardia intestinalis (ATCC #30888)
# Assay: Antigiardial biological screening (XTT tetrazolium dye procedure)
# Assay type: cell-based
# Conditions: Giardia duodenalis, ATCC30888; concentration that inhibits giardial growth by 50%, estimated graphically; samples at 10, 3.3 and 1.1 μg/mL, 24 h at 37° C., XTT; NA = inactive; read-out: IC50
# Method: Biological Screening. […] Subculturing was done every 48-72 h under a sterile biosafety hood. Tubes were chilled in an ice bath for 10 min. in order to detach the organisms, and 1 mL of cell suspension was added to 14 mL of fresh medium. To carry out the screening, a suspension of Giardia cells was prepared at a concentration of 100,000 cells/mL. 100 μL of the suspension was then added to each well of a Corning 96-well flat-bottomed tissue culture-treated plate. Blank wells received medium only. An additional 125 μL of medium was added to each well, and the plates were incubated at 37° C. for 24 h in an anaerobic chamber filled with nitrogen. […] The plates were further incubated at 37° C. for 24 h. The plates were then processed using a tetrazolium dye (XTT) procedure. Absorbance readings were taken at 450 nm with background at 630 nm subtracted.
row,Molecule,IC50 [µg/mL]
1,"O=c1c(-c2ccccc2)coc2c(Cl)c(O)ccc12 [P(A2,B1), 8-Chloro-7-hydroxy-3-phenylchromen-4-one]",1.7
2,"O=c1c(-c2ccccc2)coc2c(Br)c(O)ccc12 [P(A3,B1), 8-Bromo-7-hydroxy-3-phenylchromen-4-one]",1.6
3,"O=c1c(-c2ccccc2)coc2cc(O)c(Br)cc12 [P(A6,B1), 6-Bromo-7-hydroxy-3-phenylchromen-4-one]",5
4,"Cc1ncc([N+](=O)[O-])n1CCO [metronidazole, reference compound]",1.5

# Same assay, conditions: concentration that inhibits giardial growth by 50%, estimated graphically; samples at 10, 3.3 and 1.1 μg/mL, 24 h at 37° C., XTT; NA = inactive
row,Molecule,IC50 [µg/mL]
1,"O=c1c(-c2ccccc2)coc2c(F)c(O)ccc12 [P(A1,B1)]",<1.1
2,"O=c1c(-c2ccc(Cl)cc2)coc2c(F)c(O)ccc12 [P(A1,B8)]",>10.0
3,"O=c1c(-c2ccc(F)cc2)coc2c(F)c(O)ccc12 [P(A1,B9)]",>10.0
4,"COc1ccc(-c2coc3c(F)c(O)ccc3c2=O)cc1 [P(A1,B11)]",<1.1
5,"O=c1c(-c2ccc(Br)cc2)coc2c(F)c(O)ccc12 [P(A1,B17)]",>10.0
6,"CCOc1ccc(-c2coc3c(F)c(O)ccc3c2=O)cc1 [P(A1,B18)]",8.8
7,"Cc1cccc(-c2coc3c(F)c(O)ccc3c2=O)c1 [P(A1,B19)]",<1.1
8,"Cc1ccc(-c2coc3c(F)c(O)ccc3c2=O)cc1 [P(A1,B20)]",<1.1
9,"O=c1c(-c2ccc(F)c(F)c2)coc2c(F)c(O)ccc12 [P(A1,B22)]",<1.1
10,"O=c1c(-c2cccc(Cl)c2)coc2c(F)c(O)ccc12 [P(A1,B27)]",<1.1
11,"O=c1c(-c2ccc(Cl)cc2)coc2c(Cl)c(O)ccc12 [P(A2,B8)]",4.5
12,"O=c1c(-c2ccc(F)cc2)coc2c(Cl)c(O)ccc12 [P(A2,B9)]",>10.0
13,"COc1ccc(-c2coc3c(Cl)c(O)ccc3c2=O)cc1 [P(A2,B11)]",>10.0
14,"O=c1c(-c2ccc(Br)cc2)coc2c(Cl)c(O)ccc12 [P(A2,B17)]",5.7
15,"CCOc1ccc(-c2coc3c(Cl)c(O)ccc3c2=O)cc1 [P(A2,B18)]",>10.0
16,"Cc1cccc(-c2coc3c(Cl)c(O)ccc3c2=O)c1 [P(A2,B19)]",>10.0
17,"Cc1ccc(-c2coc3c(Cl)c(O)ccc3c2=O)cc1 [P(A2,B20)]",>10.0
18,"O=c1c(-c2ccc(F)c(F)c2)coc2c(Cl)c(O)ccc12 [P(A2,B22)]",3.7
19,"O=c1c(-c2cc(F)cc(F)c2)coc2c(Cl)c(O)ccc12 [P(A2,B23)]",<1.1
20,"O=c1c(-c2cccc(Br)c2)coc2c(Cl)c(O)ccc12 [P(A2,B26)]",<1.1
21,"O=c1c(-c2cccc(Cl)c2)coc2c(Cl)c(O)ccc12 [P(A2,B27)]",1.7
22,"O=c1c(-c2cccc(F)c2)coc2c(Cl)c(O)ccc12 [P(A2,B28)]",5.2
23,"COc1cccc(-c2coc3c(Cl)c(O)ccc3c2=O)c1 [P(A2,B29)]",4.8
24,"O=c1c(-c2ccc(Cl)cc2)coc2c(Br)c(O)ccc12 [P(A3,B8)]",1.9
25,"O=c1c(-c2ccc(F)cc2)coc2c(Br)c(O)ccc12 [P(A3,B9)]",6.8

row,Molecule,IC50 [µg/mL]
1,"CCOc1ccc(-c2coc3c(Br)c(O)ccc3c2=O)cc1 [P(A3,B10)]",9.3
2,"COc1ccc(-c2coc3c(Br)c(O)ccc3c2=O)cc1 [P(A3,B11)]",<1.1
3,"O=c1c(-c2ccc(Br)cc2)coc2c(Br)c(O)ccc12 [P(A3,B17)]",>10.0
4,"Cc1cccc(-c2coc3c(Br)c(O)ccc3c2=O)c1 [P(A3,B19)]",<1.1
5,"Cc1ccc(-c2coc3c(Br)c(O)ccc3c2=O)cc1 [P(A3,B20)]",3.9
6,"O=c1c(-c2cccc(Cl)c2)coc2c(Br)c(O)ccc12 [P(A3,B27)]",1.9
7,"O=c1c(-c2cccc(F)c2)coc2c(Br)c(O)ccc12 [P(A3,B28)]",<1.1
8,"O=c1c(-c2ccccc2)coc2cc(O)c(F)cc12 [P(A4,B1)]",6.2
9,"O=c1c(-c2ccc(Cl)cc2)coc2cc(O)c(F)cc12 [P(A4,B8)]",6.4
10,"O=c1c(-c2ccc(F)cc2)coc2cc(O)c(F)cc12 [P(A4,B9)]",>10.0
11,"COc1ccc(-c2coc3cc(O)c(F)cc3c2=O)cc1 [P(A4,B11)]",>10.0
12,"O=c1c(-c2ccc(Br)cc2)coc2cc(O)c(F)cc12 [P(A4,B17)]",9.0
13,"Cc1cccc(-c2coc3cc(O)c(F)cc3c2=O)c1 [P(A4,B19)]",<1.1
14,"Cc1ccc(-c2coc3cc(O)c(F)cc3c2=O)cc1 [P(A4,B20)]",>10.0
15,"O=c1c(-c2ccc(Cl)c(Cl)c2)coc2cc(O)c(F)cc12 [P(A4,B21)]",>10.0
16,"O=c1c(-c2ccc(F)c(F)c2)coc2cc(O)c(F)cc12 [P(A4,B22)]",9.4
17,"O=c1c(-c2cccc(F)c2)coc2cc(O)c(F)cc12 [P(A4,B28)]",4.3
18,"O=c1c(-c2ccc(Br)cc2)coc2cc(O)c(Cl)cc12 [P(A5,B17)]",>10.0
19,"Cc1cccc(-c2coc3cc(O)c(Cl)cc3c2=O)c1 [P(A5,B19)]",2.5
20,"O=c1c(-c2ccc(Cl)c(Cl)c2)coc2cc(O)c(Cl)cc12 [P(A5,B21)]",9.8
21,"O=c1c(-c2cc(F)cc(F)c2)coc2cc(O)c(Cl)cc12 [P(A5,B23)]",6.7
22,"O=c1c(-c2cccc(Cl)c2)coc2cc(O)c(Cl)cc12 [P(A5,B27)]",>10.0
23,"Cc1ccc(-c2coc3cc(O)c(Br)cc3c2=O)cc1 [P(A6,B20)]",>10.0
24,"O=c1c(-c2cccc(F)c2)coc2cc(O)c(Br)cc12 [P(A6,B28)]",<1.1

# Same assay, conditions: discussion of the IC50 table
row,Molecule,antigiardial activity/potency in words (SAR discussion)
1,"COc1ccc(-c2coc3c(F)c(O)ccc3c2=O)cc1 [P(A1,B11)]",enhanced potency
2,"O=c1c(-c2ccc(-c3ccccc3)cc2)coc2c(F)c(O)ccc12 [P(A1,B16)]",less activity
3,"Cc1cccc(-c2coc3c(F)c(O)ccc3c2=O)c1 [P(A1,B19)]",enhanced potency
4,"COc1ccc(-c2coc3c(Br)c(O)ccc3c2=O)cc1 [P(A3,B11)]",enhanced potency
5,"Cc1cccc(-c2coc3c(Br)c(O)ccc3c2=O)c1 [P(A3,B19)]",enhanced potency
6,"O=c1c(-c2cccc(F)c2)coc2c(Br)c(O)ccc12 [P(A3,B28)]",enhanced potency
7,"O=c1c(-c2ccc(-c3ccccc3)cc2)coc2cc(O)c(F)cc12 [P(A4,B16)]",less activity
8,"Cc1cccc(-c2coc3cc(O)c(F)cc3c2=O)c1 [P(A4,B19)]",enhanced potency
9,"O=c1c(-c2ccc(-c3ccccc3)cc2)coc2cc(O)c(Cl)cc12 [P(A5,B16)]",less activity
10,"O=c1c(-c2ccc(-c3ccccc3)cc2)coc2cc(O)c(Br)cc12 [P(A6,B16)]",less activity
11,"O=c1c(-c2cccc(F)c2)coc2cc(O)c(Br)cc12 [P(A6,B28)]",enhanced potency

# System: not given
# Assay: not given
# Conditions: not given
row,Molecule,melting point
1,"O=c1c(-c2ccccc2)coc2c(Cl)c(O)ccc12 [P(A2,B1), 8-Chloro-7-hydroxy-3-phenylchromen-4-one]",242 to 244 °C
2,"O=c1c(-c2ccccc2)coc2c(Br)c(O)ccc12 [P(A3,B1), 8-Bromo-7-hydroxy-3-phenylchromen-4-one]",256 to 258 °C
3,"O=c1c(-c2ccccc2)coc2cc(O)c(Cl)cc12 [P(A5,B1), 6-Chloro-7-hydroxy-3-phenylchromen-4-one]",279 to 280 °C
4,"O=c1c(-c2ccccc2)coc2cc(O)c(Br)cc12 [P(A6,B1), 6-Bromo-7-hydroxy-3-phenylchromen-4-one]",296 to 297 °C (dec.)

# System: Giardia lamblia
# Assay: not given
# Conditions: biological evaluation of natural products; formononetin and pseudobaptigenin in vitro; cited from earlier work
row,Molecule,antigiardial activity
1,COc1ccc(-c2coc3cc(O)ccc3c2=O)cc1 [formononetin],potent antigiardial activity
2,O=c1c(O)c(-c2ccc(O)cc2)oc2cc(O)cc(O)c12 [kaempferol],exhibit antigiardial activity
3,O=c1c(-c2ccc3c(c2)OCO3)coc2cc(O)ccc12 [pseudobaptigenin],potent antigiardial activity
4,O=c1c(O)c(-c2ccc(O)c(O)c2)oc2cc(O)cc(O)c12 [quercetin],exhibit antigiardial activity
5,geranins A [geranin A],exhibit antigiardial activity

# From patent publication US7468445B2, “Antigiardial agents and use thereof” (University of Mississippi, priority 2002, dated 2008)
